Measurements taken from US20220062240A1, “METHODS OF TREATING CANCER USING A CLK INHIBITOR” (BioSplice Therapeutics, Inc., priority 2018, published 2022).
Read-outs that look alike come from different tables or passages of the source.

Key:
[1] = tested on: liver cancer (3 cell lines); assay: CellTiter-Glo Viability Assay, liver cancer; assay type: cell-based; conditions: Homo sapiens, inhibition of cancer cell proliferation
[2] = tested on: haematopoietic & lymphoid tumors (13 cell lines); assay: CellTiter-Glo Viability Assay, haematopoietic & lymphoid tumors; assay type: cell-based; conditions: Homo sapiens, inhibition of cancer cell proliferation
[3] = tested on: colorectal cancer (6 cell lines); assay: CellTiter-Glo Viability Assay, colorectal cancer; assay type: cell-based; conditions: Homo sapiens, inhibition of cancer cell proliferation
[4] = tested on: pancreatic cancer (8 cell lines); assay: CellTiter-Glo Viability Assay, pancreatic cancer; assay type: cell-based; conditions: Homo sapiens, inhibition of cancer cell proliferation
CLK2 = molecular target: T1, CLK2 (Homo sapiens, UniProt P49760); assay: CLK2 kinase activity assay (Z-lyte, Ser/Thr 6 peptide); assay type: biochemical; conditions: recombinant CLK2 kinase, ATP 60 μM; read-out: EC50
T1 construct: purchased Thermo Fisher (Life Technologies), Z'-LYTE Kinase Assay Kits
T1 sequence (P49760 whole entry): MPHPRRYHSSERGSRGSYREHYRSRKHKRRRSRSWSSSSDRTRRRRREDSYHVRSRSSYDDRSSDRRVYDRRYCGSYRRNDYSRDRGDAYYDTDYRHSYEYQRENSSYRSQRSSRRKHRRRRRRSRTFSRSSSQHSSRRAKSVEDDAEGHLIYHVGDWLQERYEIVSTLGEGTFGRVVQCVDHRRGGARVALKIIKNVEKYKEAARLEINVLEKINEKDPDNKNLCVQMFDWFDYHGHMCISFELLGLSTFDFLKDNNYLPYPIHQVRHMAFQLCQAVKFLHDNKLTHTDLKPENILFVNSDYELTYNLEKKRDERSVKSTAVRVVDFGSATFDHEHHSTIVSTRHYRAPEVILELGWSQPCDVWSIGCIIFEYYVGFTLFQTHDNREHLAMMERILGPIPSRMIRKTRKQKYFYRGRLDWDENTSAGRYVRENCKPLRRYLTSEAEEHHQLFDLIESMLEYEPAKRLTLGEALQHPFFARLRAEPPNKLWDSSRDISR
Experimental: All reactions were performed in duplicate.

ZR-75-1 = assay: CellTiter-Glo Viability Assay, breast cancer; assay type: cell-based; conditions: Homo sapiens, 96 h; ZR-75-1, breast cancer, four days; read-out: EC50
CAMA1 = assay: CellTiter-Glo Viability Assay, breast cancer; assay type: cell-based; conditions: Homo sapiens, CAMA-1, 96 h; CAMA1, breast cancer, four days; read-out: EC50
MCF7 = assay: CellTiter-Glo Viability Assay, breast cancer; assay type: cell-based; conditions: Homo sapiens, 96 h; MCF7, breast cancer, four days; read-out: EC50
T47D = assay: CellTiter-Glo Viability Assay, breast cancer; assay type: cell-based; conditions: Homo sapiens, 96 h, breast cancer, four days, read-out: EC50
HCC1599 = assay: CellTiter-Glo Viability Assay, breast cancer; assay type: cell-based; conditions: Homo sapiens, 96 h; HCC1599, breast cancer, four days; read-out: EC50
MDA-MB-231-Luc = assay: CellTiter-Glo Viability Assay, breast cancer; assay type: cell-based; conditions: Homo sapiens, 96 h; MDA-MB-231-Luc, breast cancer, four days; read-out: EC50
BT-549 = assay: CellTiter-Glo Viability Assay, breast cancer; assay type: cell-based; conditions: Homo sapiens, 96 h; BT-549, breast cancer, four days; read-out: EC50
DU4475 = assay: CellTiter-Glo Viability Assay, breast cancer; assay type: cell-based; conditions: Homo sapiens, DU-4475, 96 h; DU4475, breast cancer, four days; read-out: EC50
[5] = tested on: ovarian cancer (4 cell lines); assay: CellTiter-Glo Viability Assay, ovarian cancer; assay type: cell-based; conditions: Homo sapiens, inhibition of cancer cell proliferation
CLK3 = CLK3 (Homo sapiens, UniProt P49761); assay: CLK3 kinase activity assay (Z-lyte, Ser/Thr 18 peptide)
Chain of CLK3 (P49761 whole entry): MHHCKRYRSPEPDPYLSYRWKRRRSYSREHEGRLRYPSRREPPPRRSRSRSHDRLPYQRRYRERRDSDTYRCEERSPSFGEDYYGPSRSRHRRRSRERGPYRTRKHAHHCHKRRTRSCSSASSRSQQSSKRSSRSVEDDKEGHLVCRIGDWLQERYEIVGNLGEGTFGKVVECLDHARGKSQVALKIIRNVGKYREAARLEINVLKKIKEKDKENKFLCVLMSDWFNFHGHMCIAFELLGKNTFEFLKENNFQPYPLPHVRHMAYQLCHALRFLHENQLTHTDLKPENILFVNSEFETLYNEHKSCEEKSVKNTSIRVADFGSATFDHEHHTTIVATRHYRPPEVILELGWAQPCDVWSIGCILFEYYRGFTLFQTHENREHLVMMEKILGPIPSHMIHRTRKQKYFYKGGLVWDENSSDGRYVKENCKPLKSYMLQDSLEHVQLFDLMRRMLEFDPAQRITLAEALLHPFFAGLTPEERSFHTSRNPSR

[6] = tested on: lung cancer (4 cell lines); assay: CellTiter-Glo Viability Assay, lung cancer; assay type: cell-based; conditions: Homo sapiens, inhibition of cancer cell proliferation
[7] = tested on: prostate cancer (5 cell lines); assay: CellTiter-Glo Viability Assay, prostate cancer; assay type: cell-based; conditions: Homo sapiens
all 50 cell lines = assay: CellTiter-Glo Viability Assay, average across all cell lines; assay type: cell-based; conditions: Homo sapiens; across all 50 cell lines; read-out: average EC50 for inhibition of cancer cell proliferation
How it was run: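 Cells were plated at 300-3,000 per well in their own media, then treated with compound in duplicate, with DMSO wells as controls. After four days at 37° C and 5% CO2, CellTiter-Glo was added, and luminescence was read. EC50s were fitted.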

[8] = SNU-398, SNU398 cell line, read-out: Liver cancer, EC50 SNU398
[9] = HEPG2 cell line, read-out: Liver cancer, EC50 HEPG2
[10] = PLC/PRF/5 cell line, read-out: Liver cancer, EC50 PLC/PRF/5
[11] = DND41, DND-41 cell line, read-out: Haematopoietic & Lymphoid tumors, EC50 (μM) DND-41
[12] = MV4-11, MV-4-11 cell line, read-out: Haematopoietic & Lymphoid tumors, EC50 (μM) MV-4-11
[13] = Rec1, REC-1 cell line, read-out: Haematopoietic & Lymphoid tumors, EC50 (μM) REC-1
[14] = SU-DHL-4, SUDHL4 cell line, read-out: Haematopoietic & Lymphoid tumors, EC50 (μM) SUDHL4
[15] = HL-60 cell line, read-out: Haematopoietic & Lymphoid tumors, EC50 (μM) HL-60
[16] = JM1 cell line, read-out: Haematopoietic & Lymphoid tumors, EC50 (μM) JM1
[17] = JURKAT, Clone E6-1 cell line, read-out: Haematopoietic & Lymphoid tumors, EC50 (μM) JURKAT, Clone E6-1
[18] = JeKo-1 cell line, read-out: Haematopoietic & Lymphoid tumors, EC50 (μM) JeKo-1
[19] = KASUMI-1 cell line, read-out: Haematopoietic & Lymphoid tumors, EC50 (μM) KASUMI-1
[20] = Loucy cell line, read-out: Haematopoietic & Lymphoid tumors, EC50 (μM) Loucy
[21] = MOLT-4 cell line, read-out: Haematopoietic & Lymphoid tumors, EC50 (μM) MOLT-4
[22] = TF-1 cell line, read-out: Haematopoietic & Lymphoid tumors, EC50 (μM) TF-1
[23] = TOLEDO cell line, read-out: Haematopoietic & Lymphoid tumors, EC50 (μM) TOLEDO
[24] = HCT-116, HCT116 cell line, read-out: Colorectal cancer, EC50 (μM) HCT116
[25] = HT-29, HT29 cell line, read-out: Colorectal cancer, EC50 (μM) HT29
[26] = SW-620, SW620 cell line, read-out: Colorectal cancer, EC50 (μM) SW620
[27] = DLD-1 cell line, read-out: Colorectal cancer, EC50 (μM) DLD-1
[28] = SW48 cell line, read-out: Colorectal cancer, EC50 (μM) SW48
[29] = SW480 cell line, read-out: Colorectal cancer, EC50 (μM) SW480
[30] = BXPC-3, BxPC3 cell line, read-out: Pancreatic cancer, EC50 BxPC3
[31] = CAPAN-1, Capan1 cell line, read-out: Pancreatic cancer, EC50 Capan1
[32] = Capan-2, Capan2 cell line, read-out: Pancreatic cancer, EC50 Capan2
[33] = MIA PaCa-2 cell line, read-out: Pancreatic cancer, EC50 MIA PaCa-2
[34] = PANC 05.04 cell line, read-out: Pancreatic cancer, EC50 PANC 05.04
[35] = PANC-1 cell line, read-out: Pancreatic cancer, EC50 PANC-1
[36] = UPAFII cell line, read-out: Pancreatic cancer, EC50 UPAFII
[37] = PA-1, PA1 cell line, read-out: Ovarian cancer, EC50 (μM) PA1
[38] = TOV112D, TOV-112D cell line, read-out: Ovarian cancer, EC50 (μM) TOV-112D
[39] = OV-90 cell line, read-out: Ovarian cancer, EC50 (μM) OV-90
[40] = OVCAR-3 cell line, read-out: Ovarian cancer, EC50 (μM) OVCAR-3
[41] = A-427, A427 cell line, read-out: Lung cancer, EC50 (μM) A427
[42] = HCC78, HCC-78 cell line, read-out: Lung cancer, EC50 (μM) HCC-78
[43] = NCI-H460 cell line, read-out: Lung cancer, EC50 (μM) NCI-H460
[44] = NCI-H522 cell line, read-out: Lung cancer, EC50 (μM) NCI-H522
[45] = DU-145, read-out: Prostate cancer EC50 Du-145
[46] = PC-3, PC3 cell line, inhibition of cancer cell proliferation, read-out: Prostate cancer EC50 PC3
[47] = 22Rv1 cell line, inhibition of cancer cell proliferation, read-out: Prostate cancer EC50 22Rv1
[48] = LNCap clone FGC cell line, inhibition of cancer cell proliferation, read-out: Prostate cancer EC50 LNCap clone FGC
[49] = VCaP (Sigma) cell line, inhibition of cancer cell proliferation, read-out: Prostate cancer EC50 VCaP (Sigma)

SMILES: CN1CC=C(c2cc(C(=O)Nc3cc4cc(-c5cncc(NC(C)(C)C)n5)cnc4cn3)ccn2)CC1 [Compound 86]
- EC50 [1, 8]: 459 nM
- EC50 [1, 9]: 3860 nM
- EC50 [1, 10]: > 10000 nM
- EC50 [2, 11]: 1.37 µM
- EC50 [2, 12]: 0.292 µM
- EC50 [2, 13]: 0.663 µM
- EC50 [2, 14]: 1.11 µM
- EC50 [2, 15]: 2.85 µM
- EC50 [2, 16]: 0.645 µM
- EC50 [2, 17]: 2.14 µM
- EC50 [2, 18]: 0.884 µM
- EC50 [2, 19]: 1.22 µM
- EC50 [2, 20]: 1.07 µM
- EC50 [2, 21]: 1.46 µM
- EC50 [2, 22]: 2.11 µM
- EC50 [2, 23]: 0.811 µM
- EC50 [3, 24]: 0.718 µM
- EC50 [3, 25]: 1.17 µM
- EC50 [3, 26]: 0.49 µM
- EC50 [3, 27]: 0.848 µM
- EC50 [3, 28]: 0.454 µM
- EC50 [3, 29]: 1.46 µM
- EC50 [4, 30]: 1710 nM
- EC50 [4, 31]: 1890 nM
- EC50 [4, 32]: 2630 nM
- EC50 [4, 33]: 1010 nM
- EC50 [4, 34]: 2890 nM
- EC50 [4, 35]: 5420 nM
- EC50 [4, 36]: 983 nM
- EC50 (CLK2): 4.7 nM
- EC50 (ZR-75-1): 4180 nM
- EC50 (CAMA1): 2130 nM
- EC50 (MCF7): > 10000 nM
- EC50 (T47D): > 10000 nM
- EC50 (HCC1599): > 10000 nM
- EC50 (MDA-MB-231-Luc): 3790 nM
- EC50 (BT-549): 2890 nM
- EC50 (DU4475): 2500 nM
- EC50 [5, 37]: 1.25 µM
- EC50 [5, 38]: 1.23 µM
- EC50 [5, 39]: 6.93 µM
- EC50 [5, 40]: 1.2 µM
- EC50 (CLK3): 11.5 nM
- EC50 [6, 41]: 1.5 µM
- EC50 [6, 42]: 6.86 µM
- EC50 [6, 43]: 2.72 µM
- EC50 [6, 44]: 0.895 µM
- EC50 [7, 45]: 2690 nM
- EC50 [7, 46]: 3350 nM
- EC50 [7, 47]: 1210 nM
- EC50 [7, 48]: 5330 nM
- EC50 [7, 49]: 2250 nM
- EC50 (all 50 cell lines): 2710 nM

SMILES: c1cncc(-c2ccc3[nH]nc(-c4cc5c(-c6cccnc6)cncc5[nH]4)c3c2)c1 [Compound 48]
- EC50 [1, 8]: 381 nM
- EC50 [1, 9]: 2200 nM
- EC50 [1, 10]: > 3500 nM
- EC50 [2, 11]: 0.894 µM
- EC50 [2, 12]: 0.147 µM
- EC50 [2, 13]: 2.31 µM
- EC50 [2, 14]: 1.23 µM
- EC50 [2, 15]: 3.06 µM
- EC50 [2, 16]: 0.409 µM
- EC50 [2, 17]: 1.77 µM
- EC50 [2, 18]: 0.455 µM
- EC50 [2, 19]: 2.01 µM
- EC50 [2, 20]: 0.952 µM
- EC50 [2, 21]: 2.52 µM
- EC50 [2, 22]: 2.92 µM
- EC50 [2, 23]: 0.317 µM
- EC50 [3, 24]: 1.17 µM
- EC50 [3, 25]: 1.54 µM
- EC50 [3, 26]: 0.886 µM
- EC50 [3, 27]: 2.21 µM
- EC50 [3, 28]: 0.63 µM
- EC50 [3, 29]: 1.57 µM
- EC50 [4, 30]: 3300 nM
- EC50 [4, 31]: 2760 nM
- EC50 [4, 32]: > 3500 nM
- EC50 [4, 33]: 1000 nM
- EC50 [4, 34]: > 3500 nM
- EC50 [4, 35]: > 3500 nM
- EC50 [4, 36]: 1800 nM
- EC50 (CLK2): 0.1 nM
- EC50 (ZR-75-1): 3410 nM
- EC50 (CAMA1): 1910 nM
- EC50 (MCF7): > 3500 nM
- EC50 (T47D): > 3500 nM
- EC50 (HCC1599): 146 nM
- EC50 (MDA-MB-231-Luc): 2860 nM
- EC50 (BT-549): 1310 nM
- EC50 (DU4475): 1000 nM
- EC50 [5, 37]: 1.29 µM
- EC50 [5, 38]: 1.68 µM
- EC50 [5, 39]: > 3.5 µM
- EC50 [5, 40]: 0.89 µM
- EC50 (CLK3): 2.5 nM
- EC50 [6, 41]: 0.875 µM
- EC50 [6, 42]: > 3.5 µM
- EC50 [6, 43]: > 3.5 µM
- EC50 [6, 44]: 1.17 µM
- EC50 [7, 45]: 1870 nM
- EC50 [7, 46]: 1030 nM
- EC50 [7, 47]: 1140 nM
- EC50 [7, 48]: > 3500 nM
- EC50 [7, 49]: 2000 nM
- EC50 (all 50 cell lines): 3220 nM
